# Experimental data: article PMC5758648, “Anti-glioma Natural Products Downregulating Tumor Glycolytic Enzymes from Marine Actinomycete Streptomyces sp. ZZ406” (Scientific Reports, 2018)
# Entries after “also recorded” stand apart in the source; their conditions may differ. Where a SMILES comes first, the peptide text is derived from it.
# What was measured:
# [1] = system: human glioma SHG44 cells; assay: SRB antiproliferative assay, SHG44 glioma cells; format: cell-based; settings: for Selectivity index (CC50/IC50), SHG44: CC50 in HA / IC50 in SHG44; for IC50: Homo sapiens, SHG-44, SRB assay, mean ± s.d., n = 3
# Description: (§1) Doxorubicin (DOX, a chemotherapeutic drug) was used as a positive control.
# (§2) Sulforhodamine B (SRB) assay as described in previous studies[19],[20] was used to determine the activity of tested compounds inhibiting the proliferation of glioma U87MG, U251, SHG44 cells, and normal human astrocytes (HA). Doxorubicin (DOX) was used as a positive control (CON).
# [2] = system: LDH5; assay: Western blot, LDH5 expression in U87MG cells; format: cell-based, human; settings: 48 h, 1 at 30 μM, 2 at 60 μM, western blot vs blank control
# Description: (§3) The active compounds 1 and 2 were further assayed for their effects on the expression levels of important tumor glycolytic enzymes (regulators) of HK2, PFKFB3, PKM2, and LDH5. […] Therefore, the effects of 1 and 2 on the expressions of these regulators in U87MG cells were evaluated. 2-Deoxyglucose (2-DG, a hexokinase inhibitor)[8], was used as a positive control. The U87MG cells were treated by 1 (30.0 μM), 2 (60.0 μM), or 2-DG (6.0 mM) for 48 h. Protein prepared from the compound-treated U87MG cells was subjected to western blot analysis. […] The full-length blots of Fig. 5 were provided as supplementary information (Fig. S61).
# (§4) Figure 5 The expression levels of HK2, PFKFB3, PKM2, and LDH5 in glioma U87MG cells. U87-MG cells were treated with compounds 1 (30 μM), 2 (60 μM), or 2-DG (6.0 mM) for 48 h. Protein extracted from the compound-treated cells was subjected to western blot analysis.
# (§5) Western blot analysis was used to detect the expression levels of tumor glycolytic regulators HK2, PFKFB3, PKM2, and LDH5. The detailed procedure, including protein sample preparation, determination of protein concentration, and western blot analysis, was described in the previous publication.
# [3] = system: HK2; assay: Western blot, HK2 expression in U87MG cells; format: cell-based, human; settings: 48 h, 1 at 30 μM, 2 at 60 μM, western blot vs blank control
# Description: as §3, §4, §5
# [4] = system: human glioma U87MG, U251 and SHG44 cells; assay: SRB antiproliferative assay, results summarised over the glioma cell lines; format: cell-based; settings: for IC50: Homo sapiens, Glioma cell, range over U87MG, read-out: IC50 values against different glioma cells (range); for Activity in inhibiting the proliferation of glioma cells: U87MG
# Description: as §1, §2
# [5] = system: human glioma U251 cells; assay: SRB antiproliferative assay, U251 glioma cells; format: cell-based; settings: for Selectivity index (CC50/IC50), U251: CC50 in HA / IC50 in U251; for IC50: Homo sapiens, U-251, SRB assay, mean ± s.d., n = 3
# Description: as §1, §2
# [6] = system: PKM2; assay: Western blot, PKM2 expression in U87MG cells; format: cell-based, human; settings: 48 h, 1 at 30 μM, 2 at 60 μM, western blot vs blank control
# Description: as §3, §4, §5
# [7] = SRB cytotoxicity assay, normal human astrocytes; format: cell-based; settings: normal human astrocytes (HA), mean ± s.d., n = 3
# Description: as §1, §2
# [8] = system: human glioma U87MG cells; assay: SRB antiproliferative assay, U87MG glioma cells; format: cell-based; settings: for Selectivity index (CC50/IC50), U87MG: CC50 in HA / IC50 in U87MG; for IC50: Homo sapiens, U-87 MG, SRB assay, mean ± s.d., n = 3
# Description: as §1
# The procedure of the preparation of crude extract for bioactive assay was described in the previous publication. The crude extract was made to a concentration of 1.0 mg/mL. Sulforhodamine B (SRB) assay was used to evaluate the activity of the crude extract against the proliferation of glioma U87MG cells.
# as §2
# [9] = system: PFKFB3; assay: Western blot, PFKFB3 expression in U87MG cells; format: cell-based, human; settings: 48 h, 1 at 30 μM, 2 at 60 μM, western blot vs blank control
# Description: as §3, §4, §5
# [10] = Stability in human liver microsomes; format: in vitro ADME; settings: 37 °C; for Percentage compared to the zero time point: human liver microsomes; on Percentage compared to the zero time point: tested at 12.5 µg/mL
# Description: Therefore, it is interesting to understand the stability of compound 1 in human liver microsomes. Human liver microsomes were incubated with compound 1 at 37 °C in a water bath and the concentration of 1 at designed time points of 0, 15, 30, 60, 90, 120, 180, 240, and 360 min was determined by HPLC analysis. The results (Table 2 and Fig. 6) indicated the concentration of 1 had no change after the incubation of 30 min. The percentage of 1 was 98.4% (30 min), 70.2% (60 min), 65.3% (90 min), 54.8% (120 min), 35.5% (180 min), 28.2 (240 min), and 19.4% (360 min) when compared to 100.0% (0 min). The data indicated 1 was very stable in human liver microsomes in the first 30 min incubation with concentration gradually decreasing after the incubation of 30 min.
# Compound 1 was dissolved in 100 mM NaPO4 solution (pH 7.4) to make a sample solution with a final concentration of 125 μg/mL. Human liver microsomes were diluted by 100 mM NaPO4 solution (pH 7.4) to make liver microsomal solution with a concentration of 1.25 mg/mL. A mixture of the sample solution (90 μL) and the liver microsomal solution (720 μL) was mixed well and then pre-incubated at 37 °C for 7 min. The pre-incubated mixture was initiated by adding 90 μL 10 mM NADPH solution, mixed well, and then incubated at 37 °C in a water bath. At each designed time point of 0, 15, 30, 60, 90, 120, 180, 240 and 360 min, aliquot 80 μL of the incubated mixture was pipette by micropipet and then quenched by the addition of 320 μL methanol. The reaction mixture was centrifuged at 12000 rpm for 10 min at 5 °C to give the supernatant, which was submitted to HPLC analysis.
# [11] = system: human glioma U87MG, U251 and SHG44 cells; parameters: method as in PMID 28049552; settings: cited from earlier work
# [12] = system: glioma; parameters: method as in PMID 20128807, PMID 15747063, PMID 29056497; settings: cited from earlier work
compound,measurement,setting,value
"O=C(O)c1cc(CO)c2c(c1)C(=O)c1cccc(O)c1C2=O [Compound 1, 1-hydroxymethyl-8-hydroxy-anthraquinone-3-carboxylic acid]","Selectivity index (CC50/IC50), SHG44",[1],> 12.3
same,IC50,[1],8.1 ± 0.4 µM
same,Expression level of LDH5,[2],clearly reduced; also recorded: remarkably reduced
same,Expression level of HK2,[3],clearly reduced; also recorded: remarkably reduced
same,IC50,[4],4.7 to 8.1 µM
same,"Selectivity index (CC50/IC50), U251",[5],> 17.5
same,IC50,[5],5.7 ± 0.3 µM
same,Expression level of PKM2,[6],clearly reduced; also recorded: remarkably reduced
same,CC50,[7],> 100 µM
same,"Selectivity index (CC50/IC50), U87MG",[8],> 21.3
same,IC50,[8],4.7 ± 0.2 µM
same,Expression level of PFKFB3,[9],clearly reduced; also recorded: remarkably reduced
same,Stability in human liver microsomes,[10],good stability
same,Concentration in human liver microsomes,[10]; 0 min,12400 ng/mL
same,Concentration in human liver microsomes,[10]; 15 min,12000 ng/mL
same,Concentration in human liver microsomes,[10]; 30 min,12200 ng/mL
same,Concentration in human liver microsomes,[10]; 60 min,8700 ng/mL
same,Concentration in human liver microsomes,[10]; 90 min,8100 ng/mL
same,Concentration in human liver microsomes,[10]; 120 min,6800 ng/mL
same,Concentration in human liver microsomes,[10]; 180 min,4400 ng/mL
same,Concentration in human liver microsomes,[10]; 240 min,3500 ng/mL
same,Concentration in human liver microsomes,[10]; 360 min,2400 ng/mL
same,"Stability in human liver microsomes, first 30 min",[10]; first 30 min incubation,very stable
same,Percentage compared to the zero time point,[10]; 0 min,100.0%
same,Percentage compared to the zero time point,[10]; 15 min,96.8%
same,Percentage compared to the zero time point,[10]; 30 min,98.4%
same,Percentage compared to the zero time point,[10]; 60 min,70.2%
same,Percentage compared to the zero time point,[10]; 90 min,65.3%
same,Percentage compared to the zero time point,[10]; 120 min,54.8%
same,Percentage compared to the zero time point,[10]; 180 min,35.5%
same,Percentage compared to the zero time point,[10]; 240 min,28.2%
same,Percentage compared to the zero time point,[10]; 360 min,19.4%
"Cc1cc(=O)c2c(CC(=O)C[C@@H](O)CC(=O)O)cccc2o1 [Compound 2, 5-(2′-oxo-4′R-hydroxy-hexanoic acid)-2-methyl-chromone]","Selectivity index (CC50/IC50), SHG44",[1],> 3.8
same,IC50,[1],25.8 ± 3.1 µM
same,Expression level of LDH5,[2],clearly reduced; also recorded: remarkably reduced
same,Expression level of HK2,[3],clearly reduced; also recorded: remarkably reduced
same,IC50,[4],21.6 to 25.8 µM
same,"Selectivity index (CC50/IC50), U251",[5],> 4.6
same,IC50,[5],21.6 ± 1.7 µM
same,Expression level of PKM2,[6],clearly reduced; also recorded: remarkably reduced
same,CC50,[7],> 100 µM
same,"Selectivity index (CC50/IC50), U87MG",[8],> 3.8
same,IC50,[8],25.7 ± 2.4 µM
same,Expression level of PFKFB3,[9],clearly reduced; also recorded: remarkably reduced
"CC(=O)N[C@@H](CC(C)C)C(=O)N[C@@H](CO)C(=O)N[C@@H](C)C(=O)O [Compound 3, N-acetyl-L-leucine-L-serine-L-alanine] (Ac-Leu-Ser-Ala-OH)",Activity in inhibiting the proliferation of glioma cells,[4],inactive
"CC(=O)N1CC(C(=O)O)CN1C(=O)C(C)C (stereo not drawn) [Compound 4, 1-acetyl-2-isobutyrylpyrazolidine-4-carboxylic acid]",Activity in inhibiting the proliferation of glioma cells,[4],inactive
"Cc1cc(O)c2c(c1)C(=O)c1cccc(O)c1C2=O [Compound 5, chrysophanol]",IC50,[1],3 ± 0.2 µM
same,IC50,[4],0.5 to 3 µM
same,IC50,[5],1.2 ± 0.1 µM
same,IC50,[8],0.5 ± 0.1 µM
"Cc1c(C(=O)O)c(O)cc2c1C(=O)c1c(O)cccc1C2=O [Compound 6, 3,8-dihydroxy-1-methyl-anthraquinone-2-carboxylic acid]",IC50,[1],36.3 ± 0.2 µM
same,IC50,[4],10.4 to 36.3 µM
same,IC50,[5],13 ± 0.6 µM
same,IC50,[8],10.4 ± 0.5 µM
"CC(C)[C@@H]1NC(=O)[C@H](C)OC(=O)[C@@H](C(C)C)NC(=O)[C@@H](C(C)C)OC(=O)[C@H](C(C)C)NC(=O)[C@H](C)OC(=O)[C@@H](C(C)C)NC(=O)[C@@H](C(C)C)OC(=O)[C@H](C(C)C)NC(=O)[C@H](C)OC(=O)[C@@H](C(C)C)NC(=O)[C@@H](C(C)C)OC1=O [Compound 11, valinomycin]",Activity in inhibiting the proliferation of different glioma cells,[11],showed activity
"COc1cccc2c1C(=O)c1c(O)c3c(c(O)c1C2=O)C[C@@](O)(C(=O)CO)C[C@@H]3O[C@H]1C[C@H](N)[C@H](O)[C@H](C)O1 [DOX, Doxorubicin, reference compound]","Selectivity index (CC50/IC50), SHG44",[1],3.5
same,IC50,[1],2.5 ± 1.1 µM
same,IC50,[4],1.9 to 9.6 µM
same,"Selectivity index (CC50/IC50), U251",[5],0.9
same,IC50,[5],9.6 ± 1.3 µM
same,CC50,[7],8.7 ± 1.2 µM
same,"Selectivity index (CC50/IC50), U87MG",[8],4.6
same,IC50,[8],1.9 ± 0.4 µM
O=C1c2cccc(O)c2C(=O)c2c(O)cc(CO)cc21 [aloe emodin],Activity against glioma,[12],reported to have activity against glioma
O=C(O)c1cc(O)c2c(c1)C(=O)c1cccc(O)c1C2=O [rhein],Activity against glioma,[12],reported to have activity against glioma
SZ-685C,Activity against glioma,[12],reported to have activity against glioma
